For test [1], the system named is MDA-MB-231. As to the kind of experiment: drug sensitivity score (DSS), cell viability CellTiter-Glo; higher = more sensitive; extreme values may be limits of the assay. The following applies: 72 h. Background: In ATP-based viability assays light output follows the ATP content of the culture.
For test [2], the system named is MDA-MB-231. As to the kind of experiment: drug sensitivity score (DSS), cytotoxicity CellTox Green; higher = more cytotoxic; extreme values may be limits of the assay. The following applies: 72 h.
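For drug sensitivity score (DSS), cytotoxicity CellTox Green in this document: DSS summarises each dose–response curve by combining IC50, EC50, maximal inhibition and efficacy across drug concentrations.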

Consider `CCc1cc(Nc2nccc(-c3c(-c4ccc(OC)c(C(=O)Nc5c(F)cccc5F)c4)nc4ccccn34)n2)c(OC)cc1N1CCC(N2CCN(S(C)(=O)=O)CC2)CC1`, for which the drug sensitivity score in the test with MDA-MB-231 [1] (shRNA: shPPFIA1_1) is 2.9 DSS; in the test with MDA-MB-231 [1] (shRNA: shScramble), 2.4 DSS; in the test with MDA-MB-231 [2] (shRNA: shPPFIA1_1), 0 DSS; in the test with MDA-MB-231 [2] (shRNA: shScramble), 0 DSS.

Take `CCc1cncnc1N1CCN(Cc2nc3ccc(C(F)(F)F)cc3[nH]2)CC1`: the drug sensitivity score with MDA-MB-231 [1] (shRNA: shPPFIA1_1) amounted to 0 DSS; in the test with MDA-MB-231 [1] (shRNA: shScramble) it was 1.3 DSS; in the test on MDA-MB-231 [2] (shRNA: shPPFIA1_1), 0.6 DSS; with MDA-MB-231 [2] (shRNA: shScramble) it was 0 DSS.

Turning to `CCn1c(-c2nonc2N)nc2cnc(Oc3cccc(NC(=O)c4ccc(OCCN5CCOCC5)cc4)c3)cc21`, the drug sensitivity score in the test on MDA-MB-231 [1] (shRNA: shPPFIA1_1) stood at 0 DSS; in the test on MDA-MB-231 [1] (shRNA: shScramble) it was 1.5 DSS; with MDA-MB-231 [2] (shRNA: shPPFIA1_1), 0 DSS; with MDA-MB-231 [2] (shRNA: shScramble), 0 DSS.

Take `CCn1c(C(=O)N(C2CC2)C2CC2)cc2c3c(ncn3C)c(Nc3cc(C)n(C)n3)nc21`: the drug sensitivity score in the test on MDA-MB-231 [1] (shRNA: shPPFIA1_1), in the test with MDA-MB-231 [1] (shRNA: shScramble), in the test on MDA-MB-231 [2] (shRNA: shPPFIA1_1) and in the test with MDA-MB-231 [2] (shRNA: shScramble) was 0 DSS each time.

For `CCn1cc(-c2ccnc3[nH]c(-c4cccc(CN(C)C)c4)cc23)c(-c2ccc(NC(=O)N(C)C)cc2)n1`, the drug sensitivity score with MDA-MB-231 [1] (shRNA: shPPFIA1_1) was determined as 3.9 DSS; in the test on MDA-MB-231 [1] (shRNA: shScramble), 0 DSS; in the test with MDA-MB-231 [2] (shRNA: shPPFIA1_1), 0 DSS; with MDA-MB-231 [2] (shRNA: shScramble), 6.4 DSS.

On to `CN(c1ccccc1CNc1nc(Nc2ccc3c(c2)CC(=O)N3)ncc1C(F)(F)F)S(C)(=O)=O`, for which the drug sensitivity score in the test on MDA-MB-231 [1] (shRNA: shPPFIA1_1) is 2.3 DSS; in the test with MDA-MB-231 [1] (shRNA: shScramble), 5.3 DSS; with MDA-MB-231 [2] (shRNA: shPPFIA1_1) it was 4.1 DSS; in the test on MDA-MB-231 [2] (shRNA: shScramble), 4 DSS.

Take `CN1CCC(COc2cnc(-c3cccc(Cn4nc(-c5cccc(C#N)c5)ccc4=O)c3)nc2)CC1`: the drug sensitivity score with MDA-MB-231 [1] (shRNA: shPPFIA1_1), in the test with MDA-MB-231 [1] (shRNA: shScramble), in the test with MDA-MB-231 [2] (shRNA: shPPFIA1_1) and with MDA-MB-231 [2] (shRNA: shScramble) was 0 DSS throughout.

With `CNC(=O)c1ccc(C)c(-n2c(C)cc(OCc3ccc(F)cc3F)c(Br)c2=O)c1`, the drug sensitivity score in the test with MDA-MB-231 [1] (shRNA: shPPFIA1_1), with MDA-MB-231 [1] (shRNA: shScramble), in the test on MDA-MB-231 [2] (shRNA: shPPFIA1_1) and with MDA-MB-231 [2] (shRNA: shScramble) was 0 DSS throughout.

For the compound `CNc1nc(-c2ccc3c(N)n[nH]c3c2)cc(N2C[C@@H](C(=O)NC3CCCCC3)CC[C@H]2C)n1`, the drug sensitivity score in the test with MDA-MB-231 [1] (shRNA: shPPFIA1_1) came out at 0 DSS; with MDA-MB-231 [1] (shRNA: shScramble), 3.6 DSS; in the test with MDA-MB-231 [2] (shRNA: shPPFIA1_1), 0 DSS; in the test with MDA-MB-231 [2] (shRNA: shScramble) it was 0 DSS.

Take `COc1ccc(-c2cc3c(C)nc(N)nc3n([C@H]3CC[C@H](OCCO)CC3)c2=O)cn1`: the drug sensitivity score in the test with MDA-MB-231 [1] (shRNA: shPPFIA1_1) came to 0 DSS; with MDA-MB-231 [1] (shRNA: shScramble), 6.2 DSS; in the test on MDA-MB-231 [2] (shRNA: shPPFIA1_1), 1.1 DSS; in the test with MDA-MB-231 [2] (shRNA: shScramble), 2.4 DSS.

Turning to `C[C@@H](Oc1cc(-n2cnc3ccc(CN4CCN(C)CC4)cc32)sc1C(N)=O)c1ccccc1C(F)(F)F`, the drug sensitivity score with MDA-MB-231 [1] (shRNA: shPPFIA1_1) is 1.5 DSS; in the test on MDA-MB-231 [1] (shRNA: shScramble) it was 5.2 DSS; in the test with MDA-MB-231 [2] (shRNA: shPPFIA1_1), 10 DSS; in the test with MDA-MB-231 [2] (shRNA: shScramble), 7 DSS.

Turning to `C[C@@H](Oc1ccc2[nH]nc(/C=C/c3cnn(CCO)c3)c2c1)c1c(Cl)cncc1Cl`, the drug sensitivity score in the test with MDA-MB-231 [1] (shRNA: shPPFIA1_1) was 0 DSS; in the test on MDA-MB-231 [1] (shRNA: shScramble), 4.8 DSS; in the test with MDA-MB-231 [2] (shRNA: shPPFIA1_1) it was 0 DSS; in the test on MDA-MB-231 [2] (shRNA: shScramble), 0 DSS.

For `C[C@@]1(C(=O)Nc2ccc(F)nc2)CCCN1c1nc(Nc2cc(C3CC3)n[nH]2)c2cccn2n1`, the drug sensitivity score with MDA-MB-231 [1] (shRNA: shPPFIA1_1) is 0.2 DSS; in the test on MDA-MB-231 [1] (shRNA: shScramble), 3.7 DSS; in the test with MDA-MB-231 [2] (shRNA: shPPFIA1_1) it was 0.8 DSS; with MDA-MB-231 [2] (shRNA: shScramble), 0 DSS.

Turning to `Cc1c(Cn2c(C)nc3c(C(=O)O)cc(N4CCOCC4)cc32)cccc1C(F)(F)F`, the drug sensitivity score with MDA-MB-231 [1] (shRNA: shPPFIA1_1) came to 3.6 DSS; in the test on MDA-MB-231 [1] (shRNA: shScramble), 2.8 DSS; with MDA-MB-231 [2] (shRNA: shPPFIA1_1), 0 DSS; in the test on MDA-MB-231 [2] (shRNA: shScramble), 0 DSS.

For the compound `Cc1c(NC(=O)OC[C@@H]2COCCN2)cn2ncnc(Nc3ccc4c(cnn4Cc4cccc(F)c4)c3)c12`, the drug sensitivity score was determined as 1.2 DSS in the test with MDA-MB-231 [1] (shRNA: shPPFIA1_1), 2.4 DSS in the test with MDA-MB-231 [1] (shRNA: shScramble), 0 DSS in the test on MDA-MB-231 [2] (shRNA: shPPFIA1_1) and 0 DSS in the test with MDA-MB-231 [2] (shRNA: shScramble).

As for `Cc1ccc(C(=O)N(CCCN)[C@@H](c2oc3cc(Cl)ccc3c(=O)c2Cc2ccccc2)C(C)C)cc1`, the drug sensitivity score in the test with MDA-MB-231 [1] (shRNA: shPPFIA1_1) is 0 DSS; in the test on MDA-MB-231 [1] (shRNA: shScramble) it was 6.3 DSS; with MDA-MB-231 [2] (shRNA: shPPFIA1_1) it was 9.8 DSS; in the test on MDA-MB-231 [2] (shRNA: shScramble) it was 8.7 DSS.

As for `Cc1nc(Nc2n[nH]c3c2CN(C(=O)N[C@H](CN(C)C)c2ccccc2)C3(C)C)c2sccc2n1`, the drug sensitivity score was found to be 5.6 DSS in the test with MDA-MB-231 [1] (shRNA: shPPFIA1_1), 10.1 DSS in the test with MDA-MB-231 [1] (shRNA: shScramble), 5.8 DSS in the test with MDA-MB-231 [2] (shRNA: shPPFIA1_1) and 4.8 DSS in the test with MDA-MB-231 [2] (shRNA: shScramble).

Turning to `Cn1cc(C2=Nc3cc(NC(=O)C(N)C4CCCCC4)cc4c3C2=CNNC4=O)cn1` (stereo not drawn), the drug sensitivity score with MDA-MB-231 [1] (shRNA: shPPFIA1_1) was found to be 7.8 DSS; in the test with MDA-MB-231 [1] (shRNA: shScramble), 9.4 DSS; in the test on MDA-MB-231 [2] (shRNA: shPPFIA1_1) it was 3 DSS; with MDA-MB-231 [2] (shRNA: shScramble), 0.8 DSS.

Consider `N#Cc1ccc(COC[C@H]2O[C@@H](n3c(NCc4ccc(Cl)c(Cl)c4)nc4c(N)ncnc43)[C@H](O)[C@@H]2O)cc1`, for which the drug sensitivity score turned out to be 2.3 DSS with MDA-MB-231 [1] (shRNA: shPPFIA1_1), 1.7 DSS in the test on MDA-MB-231 [1] (shRNA: shScramble), 0 DSS in the test on MDA-MB-231 [2] (shRNA: shPPFIA1_1) and 0 DSS with MDA-MB-231 [2] (shRNA: shScramble).

Take `Nc1nccc(-c2c(-c3ccc(F)cc3)ncn2C2CCCCC2)n1`: the drug sensitivity score in the test with MDA-MB-231 [1] (shRNA: shPPFIA1_1), in the test with MDA-MB-231 [1] (shRNA: shScramble), in the test with MDA-MB-231 [2] (shRNA: shPPFIA1_1) and in the test on MDA-MB-231 [2] (shRNA: shScramble) was 0 DSS throughout.

Regarding `Nc1ncnc2c1c(COc1cccc(Cl)c1)nn2C1CCOCC1`, the drug sensitivity score in the test with MDA-MB-231 [1] (shRNA: shPPFIA1_1) is 0 DSS; with MDA-MB-231 [1] (shRNA: shScramble) it was 1.2 DSS; in the test on MDA-MB-231 [2] (shRNA: shPPFIA1_1), 0 DSS; with MDA-MB-231 [2] (shRNA: shScramble), 0 DSS.

Regarding `O=C(NOCC1CC1)c1ccc(F)c(F)c1Nc1ccc(I)cc1Cl`, the drug sensitivity score in the test with MDA-MB-231 [1] (shRNA: shPPFIA1_1) turned out to be 1.8 DSS; in the test on MDA-MB-231 [1] (shRNA: shScramble), 7.7 DSS; in the test on MDA-MB-231 [2] (shRNA: shPPFIA1_1), 6.2 DSS; in the test with MDA-MB-231 [2] (shRNA: shScramble), 8.5 DSS.

On to `O=C(NOC[C@H](O)CO)c1ccc(F)c(F)c1Nc1ccc(I)cc1F`, for which the drug sensitivity score in the test with MDA-MB-231 [1] (shRNA: shPPFIA1_1) worked out at 0 DSS; in the test with MDA-MB-231 [1] (shRNA: shScramble), 9.8 DSS; with MDA-MB-231 [2] (shRNA: shPPFIA1_1), 2 DSS; in the test with MDA-MB-231 [2] (shRNA: shScramble) it was 4.7 DSS.

On to `O=C(O)c1ccc(-c2c[nH]c3ncc(-c4ccccc4)cc23)cc1C1CCCC1`, for which the drug sensitivity score with MDA-MB-231 [1] (shRNA: shPPFIA1_1), in the test on MDA-MB-231 [1] (shRNA: shScramble), with MDA-MB-231 [2] (shRNA: shPPFIA1_1) and with MDA-MB-231 [2] (shRNA: shScramble) was 0 DSS in each case.

On to `O=c1cc(N2CCOCC2)oc2c(-c3ccccc3)cccc12`, for which the drug sensitivity score with MDA-MB-231 [1] (shRNA: shPPFIA1_1) is 1.7 DSS; with MDA-MB-231 [1] (shRNA: shScramble), 0 DSS; in the test on MDA-MB-231 [2] (shRNA: shPPFIA1_1), 0.1 DSS; with MDA-MB-231 [2] (shRNA: shScramble), 2.4 DSS.

Regarding `Oc1c2ccccc2c2c3c(cccc13)N=N2`, the drug sensitivity score with MDA-MB-231 [1] (shRNA: shPPFIA1_1) worked out at 0 DSS; with MDA-MB-231 [1] (shRNA: shScramble), 0.5 DSS; in the test with MDA-MB-231 [2] (shRNA: shPPFIA1_1), 0 DSS; in the test on MDA-MB-231 [2] (shRNA: shScramble) it was 0 DSS.

In the case of `Cc1ccc(C(=O)Nc2ccc(CN3CCN(C)CC3)c(C(F)(F)F)c2)cc1C#Cc1cnc2cccnn12` [Ponatinib], the drug sensitivity score was found to be 0.1 DSS in the test with MDA-MB-231 [1] (shRNA: shPPFIA1_1) and 3.6 DSS in the test on MDA-MB-231 [1] (shRNA: shScramble).

Turning to `CCC(C)(C)C(=O)O[C@H]1C[C@@H](C)C=C2C=C[C@H](C)[C@H](CC[C@@H]3C[C@@H](O)CC(=O)O3)[C@H]21` [Simvastatin], the drug sensitivity score worked out at 0 DSS in the test on MDA-MB-231 [1] (shRNA: shPPFIA1_1) and 2.8 DSS with MDA-MB-231 [1] (shRNA: shScramble).

The values are drawn from the supplement of paper PMC10920090.
